From the NIST ThermoML archive (doi:10.1016/j.jct.2005.05.020)

Assay: xn = mol fraction of the nth substance listed
Settings: 101 kPa, Liquid

CCCCC [pentane] + CCCCCC
Settings | mass density [kg/m3]
273.15 K, x1 = 0.0999 | 674.29
273.15 K, x1 = 0.1996 | 671.84
273.15 K, x1 = 0.2998 | 668.66
273.15 K, x1 = 0.3884 | 666.23
273.15 K, x1 = 0.5 | 662.72
273.15 K, x1 = 0.6 | 659.97
273.15 K, x1 = 0.7001 | 657
273.15 K, x1 = 0.8995 | 650.09
273.16 K, x1 = 0.8011 | 653.2
278.15 K, x1 = 0.0999 | 669.9
278.15 K, x1 = 0.1996 | 667.39
278.15 K, x1 = 0.2998 | 664.21
278.15 K, x1 = 0.3884 | 661.71
278.15 K, x1 = 0.5 | 658.2
278.15 K, x1 = 0.6 | 655.38
278.15 K, x1 = 0.7001 | 652.36
278.15 K, x1 = 0.8011 | 648.53
278.15 K, x1 = 0.8995 | 645.39
283.14 K, x1 = 0.3884 | 657.16
283.14 K, x1 = 0.6 | 650.74
283.14 K, x1 = 0.7001 | 647.7
283.14 K, x1 = 0.8011 | 643.81
283.14 K, x1 = 0.8995 | 640.63
283.15 K, x1 = 0.0999 | 665.46
283.15 K, x1 = 0.1996 | 662.9
283.15 K, x1 = 0.2998 | 659.71
283.15 K, x1 = 0.5 | 653.63
288.14 K, x1 = 0.1996 | 658.38
288.14 K, x1 = 0.3884 | 652.56
288.14 K, x1 = 0.6 | 646.06
288.14 K, x1 = 0.7001 | 642.98
288.14 K, x1 = 0.8995 | 635.83
288.15 K, x1 = 0.0999 | 661
288.15 K, x1 = 0.2998 | 655.18
288.15 K, x1 = 0.5 | 649.01
288.15 K, x1 = 0.8011 | 639.05
293.14 K, x1 = 0.6 | 641.34
293.14 K, x1 = 0.7001 | 638.21
293.15 K, x1 = 0.0999 | 656.49
293.15 K, x1 = 0.1996 | 653.82
293.15 K, x1 = 0.2998 | 650.6
293.15 K, x1 = 0.3884 | 647.93
293.15 K, x1 = 0.5 | 644.36
293.15 K, x1 = 0.8011 | 634.24
293.15 K, x1 = 0.8995 | 630.97
298.14 K, x1 = 0.1996 | 649.22
298.14 K, x1 = 0.3884 | 643.25
298.14 K, x1 = 0.6 | 636.57
298.14 K, x1 = 0.7001 | 633.51
298.14 K, x1 = 0.8995 | 626.07
298.15 K, x1 = 0.0999 | 651.95
298.15 K, x1 = 0.2998 | 645.98
298.15 K, x1 = 0.5 | 639.66
298.15 K, x1 = 0.8011 | 629.38
303.14 K, x1 = 0.1996 | 644.58
303.14 K, x1 = 0.3884 | 638.53
303.14 K, x1 = 0.6 | 631.74
303.14 K, x1 = 0.7001 | 628.65
303.14 K, x1 = 0.8011 | 624.47
303.15 K, x1 = 0.0999 | 647.36
303.15 K, x1 = 0.2998 | 641.31
303.15 K, x1 = 0.5 | 634.91
303.15 K, x1 = 0.8995 | 621.11
308.14 K, x1 = 0.7001 | 623.75
308.15 K, x1 = 0.0999 | 642.74
308.15 K, x1 = 0.1996 | 639.9
308.15 K, x1 = 0.2998 | 636.59
308.15 K, x1 = 0.3884 | 633.76
308.15 K, x1 = 0.5 | 630.1
308.15 K, x1 = 0.6 | 626.86
308.15 K, x1 = 0.8011 | 619.5
308.15 K, x1 = 0.8995 | 616.08
313.14 K, x1 = 0.6 | 621.92
313.14 K, x1 = 0.8011 | 614.47
313.14 K, x1 = 0.8995 | 611
313.15 K, x1 = 0.0999 | 638.06
313.15 K, x1 = 0.1996 | 635.17
313.15 K, x1 = 0.2998 | 631.82
313.15 K, x1 = 0.3884 | 628.94
313.15 K, x1 = 0.5 | 625.24
313.15 K, x1 = 0.7001 | 618.75
318.14 K, x1 = 0.3884 | 624.06
318.14 K, x1 = 0.6 | 616.92
318.14 K, x1 = 0.7001 | 613.89
318.14 K, x1 = 0.8995 | 605.86
318.15 K, x1 = 0.0999 | 633.32
318.15 K, x1 = 0.1996 | 630.38
318.15 K, x1 = 0.5 | 620.41
318.15 K, x1 = 0.8011 | 609.38
323.14 K, x1 = 0.1996 | 625.55
323.14 K, x1 = 0.5 | 615.41
323.14 K, x1 = 0.8995 | 600.65
323.15 K, x1 = 0.0999 | 628.53
323.15 K, x1 = 0.6 | 611.84
328.14 K, x1 = 0.1996 | 620.65
328.15 K, x1 = 0.0999 | 623.68
328.15 K, x1 = 0.5 | 610.35
328.15 K, x1 = 0.6 | 606.69
333.15 K, x1 = 0.0999 | 618.77
333.15 K, x1 = 0.1996 | 615.6
